Laboratory results as given in US11001586B2, “Alkyl pyrrolopyrimidine analogs and methods of making and using same” (The University of North Carolina at Chapel Hill, priority 2016, dated 2021).

Assays:
[1] = molecular target: Tyro3 tyrosine kinase (Homo sapiens (Human), UniProt Q06418); test: Evaluation of activity against Tyro3 tyrosine kinase; type: biochemical
[2] = molecular target: Mer tyrosine kinase (Homo sapiens (Human), UniProt Q12866); test: Evaluation of activity against Mer tyrosine kinase; type: biochemical
Sequence of Mer tyrosine kinase (Q12866 21-999): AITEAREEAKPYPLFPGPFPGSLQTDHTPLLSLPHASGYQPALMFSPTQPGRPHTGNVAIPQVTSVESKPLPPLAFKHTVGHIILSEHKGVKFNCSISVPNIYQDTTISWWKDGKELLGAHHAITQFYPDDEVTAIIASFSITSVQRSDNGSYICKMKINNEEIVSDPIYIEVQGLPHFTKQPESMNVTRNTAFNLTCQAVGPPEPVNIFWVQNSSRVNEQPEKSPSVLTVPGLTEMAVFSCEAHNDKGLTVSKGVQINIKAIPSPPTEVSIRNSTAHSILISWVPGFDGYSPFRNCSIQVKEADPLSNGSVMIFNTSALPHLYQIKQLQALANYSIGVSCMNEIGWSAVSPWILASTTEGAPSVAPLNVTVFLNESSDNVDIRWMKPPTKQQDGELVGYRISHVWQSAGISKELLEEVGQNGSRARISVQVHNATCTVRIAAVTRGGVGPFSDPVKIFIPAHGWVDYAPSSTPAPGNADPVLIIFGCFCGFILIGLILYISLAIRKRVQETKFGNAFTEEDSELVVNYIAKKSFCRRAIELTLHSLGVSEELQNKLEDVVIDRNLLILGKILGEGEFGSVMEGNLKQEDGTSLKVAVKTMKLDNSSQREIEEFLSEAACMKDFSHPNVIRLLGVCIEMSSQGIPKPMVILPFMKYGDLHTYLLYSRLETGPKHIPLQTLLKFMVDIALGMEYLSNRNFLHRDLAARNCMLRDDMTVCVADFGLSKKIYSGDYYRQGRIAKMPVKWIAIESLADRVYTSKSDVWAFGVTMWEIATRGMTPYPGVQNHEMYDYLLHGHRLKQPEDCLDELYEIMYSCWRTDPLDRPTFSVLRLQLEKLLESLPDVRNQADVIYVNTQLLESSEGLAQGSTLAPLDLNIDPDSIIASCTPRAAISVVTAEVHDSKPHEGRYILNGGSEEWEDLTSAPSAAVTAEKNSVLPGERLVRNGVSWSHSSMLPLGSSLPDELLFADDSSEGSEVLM

Sequence of Tyro3 tyrosine kinase (Q06418 41-890): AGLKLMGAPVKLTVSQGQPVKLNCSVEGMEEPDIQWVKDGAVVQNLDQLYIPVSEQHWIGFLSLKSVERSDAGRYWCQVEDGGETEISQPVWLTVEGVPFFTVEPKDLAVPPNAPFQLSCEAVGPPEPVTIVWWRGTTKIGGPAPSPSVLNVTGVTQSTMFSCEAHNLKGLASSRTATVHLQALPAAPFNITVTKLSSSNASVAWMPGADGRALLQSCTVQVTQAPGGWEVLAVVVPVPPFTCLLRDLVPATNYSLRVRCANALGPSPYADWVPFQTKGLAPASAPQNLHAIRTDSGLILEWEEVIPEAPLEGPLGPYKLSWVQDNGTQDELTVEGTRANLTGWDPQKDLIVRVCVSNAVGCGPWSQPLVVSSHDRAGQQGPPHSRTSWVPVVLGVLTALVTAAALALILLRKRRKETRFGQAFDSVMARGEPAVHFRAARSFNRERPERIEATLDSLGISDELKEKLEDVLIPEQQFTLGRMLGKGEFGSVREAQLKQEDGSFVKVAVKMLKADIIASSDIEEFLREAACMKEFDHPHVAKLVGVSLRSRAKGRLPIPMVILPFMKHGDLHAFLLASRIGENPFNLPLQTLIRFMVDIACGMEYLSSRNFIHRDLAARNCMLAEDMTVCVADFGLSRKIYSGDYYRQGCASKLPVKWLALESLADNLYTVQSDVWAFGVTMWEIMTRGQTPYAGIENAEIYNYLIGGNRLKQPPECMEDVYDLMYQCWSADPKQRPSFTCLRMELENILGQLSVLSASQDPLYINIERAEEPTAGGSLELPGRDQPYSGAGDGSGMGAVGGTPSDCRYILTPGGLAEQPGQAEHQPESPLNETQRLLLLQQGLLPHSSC

| IC50 [1] [nM] | IC50 [2] [nM] | SMILES |
| --- | --- | --- |
| 100 to 1000 | < 10 | CCC[C@H](C)Nc1ncc2c(C3CCN(C(=O)CCOC)CC3)cn([C@H]3CC[C@H](O)CC3)c2n1 [compound 9, 1-(4-(7-((1R,4S)-4-hydroxycyclohexyl)-2-(((S)-pentan-2-yl)amino)-7H-pyrrolo[2,3-d]pyrimidin-5-yl)piperidin-1-yl)-3-methoxypropan-1-one] |
| 10 to 100 | < 10 | CCC[C@H](C)Nc1ncc2c(C3CCN(C(=O)C4CNC4)CC3)cn([C@H]3CC[C@H](O)CC3)c2n1 [compound 13, Azetidin-3-yl(4-(7-((1R,4S)-4-hydroxycyclohexyl)-2-(((S)-pentan-2-yl)amino)-7H-pyrrolo[2,3-d]pyrimidin-5-yl)piperidin-1-yl)methanone] |
| 10 to 100 | < 10 | CCC[C@H](C)Nc1ncc2c(C3CCN(C(=O)C4CN(C)C4)CC3)cn([C@H]3CC[C@H](O)CC3)c2n1 [compound 14, (4-(7-((1R,4S)-4-hydroxycyclohexyl)-2-(((S)-pentan-2-yl)amino)-7H-pyrrolo[2,3-d]pyrimidin-5-yl)piperidin-1-yl)(1-methylazetidin-3-yl)methanone] |
| 10 to 100 | < 10 | CCC[C@H](C)Nc1ncc2c(C3CCN(C(=O)C4CCCN4)CC3)cn([C@H]3CC[C@H](O)CC3)c2n1 (stereo partly drawn) [compound 15, 7-((1R,4S)-4-hydroxycyclohexyl)-2-(((S)-pentan-2-yl)amino)-5-(1-prolylpiperidin-4-yl)-7H-pyrrolo[2,3-d]pyrimidine] |
| 10 to 100 | < 10 | CCC[C@H](C)Nc1ncc2c(C3CCN(C(=O)C4CCCN4C)CC3)cn([C@H]3CC[C@H](O)CC3)c2n1 (stereo partly drawn) [compound 16, 7-((1R,4S)-4-hydroxycyclohexyl)-5-(1-(methylprolyl)piperidin-4-yl)-2-(((S)-pentan-2-yl)amino)-7H-pyrrolo[2,3-d]pyrimidine] |
| 10 to 100 | < 10 | CCC[C@H](C)Nc1ncc2c(C3CCN(C(=O)C4CCNC4)CC3)cn([C@H]3CC[C@H](O)CC3)c2n1 (stereo partly drawn) [compound 17, (4-(7-((1R,4S)-4-hydroxycyclohexyl)-2-(((S)-pentan-2-yl)amino)-7H-pyrrolo[2,3-d]pyrimidin-5-yl)piperidin-1-yl)(pyrrolidin-3-yl)methanone] |

The next lines start with the compound.

| SMILES | IC50 [1] [nM] | IC50 [2] [nM] |
| --- | --- | --- |
| CCC[C@H](C)Nc1ncc2c(C3CCN(S(=O)(=O)C4CCN(C)CC4)CC3)cn([C@H]3CC[C@H](O)CC3)c2n1 [compound 1, (1S,4R)-4-(5-(1-((1-methylpiperidin-4-yl)sulfonyl)piperidin-4-yl)-2-(((S)-pentan-2-yl)amino)-7H-pyrrolo[2,3-d]pyrimidin-7-yl)cyclohexan-1-ol] | 10 to 100 | < 10 |
| CCC[C@H](C)Nc1ncc2c(C3CCN(S(=O)(=O)C4CCNCC4)CC3)cn([C@H]3CC[C@H](O)CC3)c2n1 [compound 3, (1S,4R)-4-(2-(((S)-pentan-2-yl)amino)-5-(1-(piperidin-4-ylsulfonyl)piperidin-4-yl)-7H-pyrrolo[2,3-d]pyrimidin-7-yl)cyclohexan-1-ol] | 10 to 100 | < 10 |
| CCC[C@H](C)Nc1ncc2c(C3CCN(S(=O)(=O)CCOC)CC3)cn([C@H]3CC[C@H](O)CC3)c2n1 [compound 4, (1S,4R)-4-(5-(1-((2-methoxyethyl)sulfonyl)piperidin-4-yl)-2-(((S)-pentan-2-yl)amino)-7H-pyrrolo[2,3-d]pyrimidin-7-yl)cyclohexan-1-ol] | 100 to 1000 | < 10 |
| CCC[C@H](C)Nc1ncc2c(C3CCN(C(=O)C4CCNCC4)CC3)cn([C@H]3CC[C@H](O)CC3)c2n1 [compound 8, (4-(7-((1R,4S)-4-hydroxycyclohexyl)-2-(((S)-pentan-2-yl)amino)-7H-pyrrolo[2,3-d]pyrimidin-5-yl)piperidin-1-yl)(piperidin-4-yl)methanone] | 10 to 100 | < 10 |
| CCCCNc1ncc2c(C3CC4CCC(C3)N4)cn([C@H]3CC[C@H](O)CC3)c2n1 (stereo partly drawn) [compound 12, (1R,4R)-4-(5-((1R,3S,5S)-8-azabicyclo[3.2.1]octan-3-yl)-2-(butylamino)-7H-pyrrolo[2,3-d]pyrimidin-7-yl)cyclohexan-1-ol] | 1000 to 30000 | – |
